Test results as given in patent US4317912A, “Tetracyclic indole derivatives” (Farmitalia Carlo Erba S.p.A., priority 1979, dated 1982).

Columns and labels:
[1] = Acute (orientative) oral toxicity in mice; conditions: mouse, in vivo
Excerpt: The male mice for each group were orally treated with drugs at different dose levels for the determination of orientative toxicity.

[2] = tested on: spontaneously hypertensive male rats, strain MHS; assay: Anti-hypertensive activity in spontaneously hypertensive rats (MHS), blood pressure and heart rate measured at the tail; assay type: in vivo, rat (spontaneously hypertensive; conditions: MHS rats; for Change in BP, 1st day, 1 hr after dose / Change in HR, 1st day, 1 hr after dose / Change in BP, 1st day, 5 hrs after dose / Change in HR, 1st day, 5 hrs after dose / Change in BP, 4th day, 1 hr after dose / Change in HR, 4th day, 1 hr after dose / Change in HR, 4th day, 5 hrs after dose / Change in BP, 4th day, 5 hrs after dose: mean of 4 animals
Experimental: Four spontaneously hypertensive male rats, strains MHS, weighing 250-300 g for each group were used.
The animals were treated for four consecutive days. Drugs were administered by gastric gavage, suspended in 5% arabic gum (0.2 ml/100 g body weight). Blood pressure (BP) and heart rate (HR) were measured at the tail by BP Recorder W+W. Blood pressure and heart rate were measured on the 1st and 4th day of treatment 1 hour before and 1 and 5 hours after drug administration.
*Data of LD50 from the literature. In Tables 1 and 2 are reported
the results of the study of the activity of compounds 355/1165 and
355/1166 upon the BP and HR (measured indirectly by means of a tail cuff)
of spontaneous hypertensive rats, MHS strain (4 rats each group). The
compounds were given orally, once a day for 4 consecutive days.

[3] = tested on: spontaneously hypertensive rats (Okamoto strain); assay: Anti-hypertensive activity in conscious spontaneously hypertensive rats (Okamoto), carotid artery catheter; assay type: in vivo, rat (spontaneously hypertensive; conditions: 3 mg/kg os, mean of 6 animals
Experimental: Blood pressure recordings were made in conscious hypertensive unrestrained rats weighing approximately 300 g, via a catheter cronically inserted into the left common carotid artery. Implantation of arterial cannula was made under sodium pentobarbital anesthesia (50 mg/kg i.p.). A 1 cm long incision was made through the previously shaved ventral surface of the neck and the tissues overlying the trachea parted by blunt dissection to reveal the carotid artery. The polyethylene catheter used was made with PE 50 tubing, previously filled with saline containing 250 I.U./ml heparin. The tip of the cannula was pushed at least 2 cm inside the vessel toward the heart. The cannula was then firmly tied and passed beneath the skin to emerge from a small incision in the back of the neck. During the postoperative period and before the start of each recording session, the cannula was flushed through daily with saline containing heparin (250 U.I./ml). The experiments were performed two days after surgery. Drugs were administered by gastric gavage.

## CN1CC(CC(C#N)C(N)=O)C2=Cc3cccc4[nH]cc(c34)CC21 (stereo not drawn) [355/1229, 2-Cyano-3-[5(10→9)abeo-9,10-didehydro-6-methyl-ergoline-8β]-propionamide]
[1]
  LD50 at 168 h: 600 mg/kg
[2]; 1 mg/kg os
  Change in BP, 1st day, 1 hr after dose: -26 mmHg
  Change in HR, 1st day, 1 hr after dose: +25 b/min
  Change in BP, 1st day, 5 hrs after dose: -19 mmHg
  Change in HR, 1st day, 5 hrs after dose: -2 b/min
  Change in BP, 4th day, 1 hr after dose: -21 mmHg
  Change in HR, 4th day, 1 hr after dose: -18 b/min
  Change in HR, 4th day, 5 hrs after dose: -53 b/min
[2]; 5 mg/kg os
  Change in BP, 1st day, 1 hr after dose: -26 mmHg
  Change in HR, 1st day, 1 hr after dose: -40 b/min
  Change in BP, 1st day, 5 hrs after dose: -20 mmHg
  Change in HR, 1st day, 5 hrs after dose: -35 b/min
  Change in BP, 4th day, 1 hr after dose: -36 mmHg
  Change in HR, 4th day, 1 hr after dose: -50 b/min
  Change in BP, 4th day, 5 hrs after dose: -45 mmHg
  Change in HR, 4th day, 5 hrs after dose: -55 b/min
[2]; 5 mg/kg per os, 1st and 4th day, vs Hydralazine (3 mg/kg per os) and α-methyl-DOPA
  Activity compared with Hydralazine and α-methyl-DOPA: greater activity
[2]; 1 and 5 mg/kg orally, 1st and 4th day
  Effect on blood pressure: both dosages reduce BP in a similar way on the 1st day, when during the 4th day the decrease of BP is dose-dependent
[2]; four days, 355/1165 2 mg/kg, 355/1226 3 mg/kg, 355/1225 and 355/1229 5 mg/kg per os
  Tolerance after repeated administration: No tolerance occurs

## NNc1nncc2ccccc12 [Hydralazine, reference compound]
[3]; 30'
  Change in blood pressure after treatment, 30': -25 mmHg
  Change in heart rate after treatment, 30': +50 b/min
[3]; 60'
  Change in blood pressure after treatment, 60': -33 mmHg
  Change in heart rate after treatment, 60': +21 b/min
[3]; 120'
  Change in blood pressure after treatment, 120': -40 mmHg
  Change in heart rate after treatment, 120': +52 b/min
[3]; 240'
  Change in blood pressure after treatment, 240': -29 mmHg
  Change in heart rate after treatment, 240': +3 b/min
[3]; 360'
  Change in blood pressure after treatment, 360': -7 mmHg
  Change in heart rate after treatment, 360': +3 b/min
[2]; 1 mg/kg os
  Change in BP, 1st day, 1 hr after dose: 0 mmHg
  Change in HR, 1st day, 1 hr after dose: +20 b/min
  Change in BP, 1st day, 5 hrs after dose: -10 mmHg
  Change in HR, 1st day, 5 hrs after dose: +25 b/min
  Change in BP, 4th day, 1 hr after dose: +7 mmHg
  Change in HR, 4th day, 1 hr after dose: +30 b/min
  Change in BP, 4th day, 5 hrs after dose: +2 mmHg
  Change in HR, 4th day, 5 hrs after dose: +15 b/min
[2]; 3 mg/kg os
  Change in BP, 1st day, 1 hr after dose: -43 mmHg
  Change in HR, 1st day, 1 hr after dose: +31 b/min
  Change in BP, 1st day, 5 hrs after dose: -29 mmHg
  Change in HR, 1st day, 5 hrs after dose: +34 b/min
  Change in BP, 4th day, 1 hr after dose: -15 mmHg
  Change in HR, 4th day, 1 hr after dose: +18 b/min
  Change in BP, 4th day, 5 hrs after dose: +5 mmHg
  Change in HR, 4th day, 5 hrs after dose: +13 b/min
[2]; oral, all doses treated (Table 2)
  Effect on heart rate: no effect on heart rate
